Measured values from ChEMBL document CHEMBL1155013, “Design, synthesis, and evaluation of fused heterocyclic analogs of SCH 58261 as adenosine A2A receptor antagonists” (Bioorg Med Chem Lett, 2008).

How the values were obtained:
Format in all cases: ADME, organism-based
[1] = AUC (0 to 6 hrs) in rat at 3 mg/kg, po; design: time < 6 hr, dose 3 mg/kg, route oral; conditions: plasma
[2] = Half life in rat at 3 mg/kg, po; design: dose 3 mg/kg, route oral; conditions: in vivo
[3] = AUC in rat at 3 mg/kg, po; design: dose 3 mg/kg, route oral; conditions: plasma
[4] = Bioavailability in rat at 3 mg/kg, po; conditions: in vivo
[5] = Plasma clearance in rat at 3 mg/kg, po; design: dose 3 mg/kg, route oral

COc1ccc2c(c1)CN(CCn1ncc3c1nc(N)n1nc(-c4ccco4)nc31)C2
AUC(0-t) at 6 h [1]: 199 ng·h/mL

Nc1nc2c(cnn2CCN2Cc3ccccc3C2)c2nc(-c3ccco3)nn12
AUC(0-t) at 6 h [1]: 287 ng·h/mL

Nc1nc2c(cnn2CCN2CCc3ncccc3C2)c2nc(-c3ccco3)nn12
AUC(0-t) at 6 h [1]: 1790 ng·h/mL

Nc1nc2c(cnn2CCN2CCc3ncncc3C2)c2nc(-c3ccco3)nn12
AUC(0-t) at 6 h [1]: 467 ng·h/mL

Nc1nc2c(cnn2CCN2CCc3ccccc3C2)c2nc(-c3ccco3)nn12
AUC(0-t) at 6 h [1]: 60 ng·h/mL

COCCOc1ccc2c(c1)CCN(CCn1ncc3c1nc(N)n1nc(-c4ccco4)nc31)CC2
AUC(0-t) at 6 h [1]: 103 ng·h/mL

COCCOc1cccc2c1CN(CCn1ncc3c1nc(N)n1nc(-c4ccco4)nc31)C2
AUC(0-t) at 6 h [1]: 215 ng·h/mL

Cc1cnc2c(c1)CN(CCn1ncc3c1nc(N)n1nc(-c4ccco4)nc31)CC2
half-life [2]: 11.3 h
AUC(0-t) at 6 h [1]: 3490 ng·h/mL
AUC [3]: 7980 ng·h/mL
bioavailability [4]: 71%
CL/F [5]: 4.7 mL/min/kg

COCCOc1cnc2c(c1)CN(CCn1ncc3c1nc(N)n1nc(-c4ccco4)nc31)CC2
AUC(0-t) at 6 h [1]: 477 ng·h/mL

Nc1nc2c(cnn2CCN2CCc3ncc(Br)cc3C2)c2nc(-c3ccco3)nn12
AUC(0-t) at 6 h [1]: 2020 ng·h/mL

COc1ccc2c(c1)CCN(CCn1ncc3c1nc(N)n1nc(-c4ccco4)nc31)C2
AUC(0-t) at 6 h [1]: 688 ng·h/mL

COc1ccc2c(c1)CN(CCn1ncc3c1nc(N)n1nc(-c4ccco4)nc31)CC2
AUC(0-t) at 6 h [1]: 357 ng·h/mL

COCCOc1cccc2c1CN(CCn1ncc3c1nc(N)n1nc(-c4ccco4)nc31)CC2
AUC(0-t) at 6 h [1]: 31 ng·h/mL

Nc1nc2c(cnn2CCN2CCc3nc(C(F)(F)F)ccc3C2)c2nc(-c3ccco3)nn12
AUC(0-t) at 6 h [1]: 1240 ng·h/mL

Nc1nc2c(cnn2CCN2CCc3ncc(C4CC4)cc3C2)c2nc(-c3ccco3)nn12
AUC(0-t) at 6 h [1]: 214 ng·h/mL

Nc1nc2c(cnn2CCN2CCc3ccccc3CC2)c2nc(-c3ccco3)nn12
AUC(0-t) at 6 h [1]: 48 ng·h/mL
